Experimental data: US20080009505A1, “Theanine derivatives, uses thereof and processes for the manufacture thereof” (Conopco Inc. d/b/a UNILEVER, priority 2006, published 2008)
Where two headings read alike, the source gives them in different places.

Type: physicochemical
Settings: pH 4; for Remaining: buffer
Experimental: 0.05 M citrate buffer with a pH of 4.0 at 20.3° C. was prepared. To this buffer were added 5.35 mM theanine and 2.675 mM of the theanine dimer. The resulting solution was held at 92° C. for two weeks with small samples being taken regularly for analysis with HPLC.

Structure (SMILES)	Remaining (0 h) [mM]	Remaining (2.5 h) [mM]	Remaining (17.5 h) [mM]	Remaining (26.3 h) [mM]	Remaining (42 h) [mM]	Remaining (50 h) [mM]	Remaining (121.3 h) [mM]	Remaining (137.3 h) [mM]	Remaining (145.8 h) [mM]	Remaining (161.6 h) [mM]	Remaining (170.2 h) [mM]	Remaining (185.8 h) [mM]	Remaining (193.3 h) [mM]	Stability compared with theanine
CCNC(=O)CCC1NC(=O)C(CCC(=O)NCC)NC1=O (stereo not drawn) [Theanine Dimer, N-ethyl-3-[5-(2-ethylcarbamoyl-ethyl)-3,6-dioxo-piperazin-2-yl]-propionamide]	2.68	2.75	2.80	2.78	2.99	3.31	3.36	3.38	3.51	3.54	3.59	3.63	3.80	much more stable than theanine
CCNC(=O)CCC(N)C(=O)O (stereo not drawn) [Theanine, N-gamma-ethyl glutamine]	5.35	4.83	2.54	1.83	0.81	0.05	0.04	0.03	0.02	0.01	0.01	0.01	0.01	–
